According to publication PMC9120901 (The Journal of General Physiology, 2022):
Blank lines part the entries; values can stand above or below the compound they belong to.

Assays:
Type in all cases: cell-based
[1] = target: T1, ASIC3 (Rattus norvegicus, UniProt O35240); test: whole-cell patch clamp, concentration dependence of shift of activation pH0.[…]
T1 sequence (O35240 1-533): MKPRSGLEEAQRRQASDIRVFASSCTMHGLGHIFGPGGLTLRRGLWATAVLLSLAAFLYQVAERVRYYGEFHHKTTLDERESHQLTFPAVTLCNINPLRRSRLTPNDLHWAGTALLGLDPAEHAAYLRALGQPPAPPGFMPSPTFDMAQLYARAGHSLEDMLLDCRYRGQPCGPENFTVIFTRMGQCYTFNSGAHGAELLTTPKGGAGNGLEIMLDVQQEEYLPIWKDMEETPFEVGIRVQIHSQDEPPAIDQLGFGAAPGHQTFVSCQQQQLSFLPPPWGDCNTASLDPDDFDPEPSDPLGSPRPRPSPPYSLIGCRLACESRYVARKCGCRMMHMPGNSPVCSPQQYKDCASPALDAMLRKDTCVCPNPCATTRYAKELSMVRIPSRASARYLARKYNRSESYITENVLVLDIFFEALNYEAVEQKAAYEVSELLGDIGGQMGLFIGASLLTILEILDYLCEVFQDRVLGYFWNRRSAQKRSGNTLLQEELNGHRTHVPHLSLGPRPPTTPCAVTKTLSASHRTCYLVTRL

[2] = target: T1, ASIC3; test: whole-cell patch clamp, shift of activation pH0.[…]
[3] = target: T1, ASIC3; test: whole-cell patch clamp

EC50 [1]: 11 ± 2 µM
Compound: CCCCC/C=C\C/C=C\C/C=C\C/C=C\CCCC(=O)O [AA, arachidonic acid]

Compound: CCCCC/C=C\C/C=C\C/C=C\C/C=C\CCCC(=O)NCC(=O)O [AG, arachidonyl glycine]
EC50 [2]: 5.4 ± 1.12 µM

whole-cell patch clamp; pH0.5 shift at 10 μM and concentration dependence at pH [3]: 0.27 ΔpH0.5 at 10 µM
Compound: CC/C=C\C/C=C\C/C=C\C/C=C\C/C=C\CCCCCC(=O)O [DPA, docosapentaenoic acid]
